Source: patent publication US12448375B2, “Kinase inhibitors for the treatment of neurodegenerative diseases” (Ohio State Innovation Foundation, priority 2019, dated 2025)

Columns and labels:
Format in all cases: biochemical
HGK = HGK (Homo sapiens, UniProt O95819); test: Enzymatic kinase assay, HGK
Method: [Worded in the source for another target; this target is reported under the same test.] (§1) The anti-JNK3 activity of compounds prepared as in the previous examples was evaluated using a Reaction Biology Corp. HotSpot Kinase Assay. Base reaction buffer was 20 mM HEPES (4-(2-hydroxyethyl)-1-piperazineethanesulfonic acid) at pH 7.5 with 10 mM MgCl2, 1 mM EGTA (ethylene glycol-bis(β-aminoethyl ether)-N,N,N′,N′-tetracetic acid), 0.02% Brij™ 35, 0.02 mg/mL BSA (bovine serum albumin), 0.1 mM Na3VO4, 2 mM DTT (dithiothreitol), and 1% DMSO. Required cofactors were added individually to each kinase reaction.
(§2) Kinase activity was evaluated as follows: • (1) Substrate was dissolved in freshly prepared reaction buffer • (2) Any required cofactors were dissolved in the substrate solution • (3) Kinase was added to the substrate solution followed by gentle mixing • (4) Compounds to be tested dissolved in 100% DMSO were added to the kinase reaction mixture using an Echo550 acoustic liquid handler (Labcyte, San Jose, CA) and incubated for 20 minutes at room temperature • (5) ^33P-ATP was added to the reaction mixture to initiate the kinase reaction • (6) The reaction mixture was incubated for 2 hours at room temperature • (7) Kinase activity was detected by spotting the kinase reaction on Whatman P81 paper, exposing and developing the images using a phosphorimager, and quantifying counts to determine kinase activity

JNK1 = molecular target: T1, JNK1 (Homo sapiens, UniProt P45983); test: HotSpot Kinase Assay, JNK1; settings: HotSpot radiometric assay, 33P-ATP
T1 construct: purchased Reaction Biology Corp
T1 sequence (P45983 whole entry): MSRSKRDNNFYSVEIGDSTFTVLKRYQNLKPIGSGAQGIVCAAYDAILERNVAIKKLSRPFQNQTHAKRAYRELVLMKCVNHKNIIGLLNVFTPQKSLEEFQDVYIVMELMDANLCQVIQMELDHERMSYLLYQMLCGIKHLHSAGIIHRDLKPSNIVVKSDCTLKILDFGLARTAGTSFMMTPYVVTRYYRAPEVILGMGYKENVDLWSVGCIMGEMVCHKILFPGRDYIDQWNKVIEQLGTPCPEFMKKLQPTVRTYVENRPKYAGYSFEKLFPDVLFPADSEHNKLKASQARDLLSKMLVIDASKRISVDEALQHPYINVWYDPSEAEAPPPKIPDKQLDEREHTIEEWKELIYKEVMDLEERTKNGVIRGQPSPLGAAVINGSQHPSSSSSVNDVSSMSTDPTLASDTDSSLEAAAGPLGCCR
Outline: (§3)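 Radiometric HotSpot kinase assay in 20 mM HEPES pH 7.5 with 10 mM MgCl2, 1 mM EGTA, 0.02% Brij 35, 0.02 mg/mL BSA, 0.1 mM Na3VO4, 2 mM DTT and 1% DMSO. Cofactors were added per kinase, with the same format for all three kinases.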

JNK3 = molecular target: T2, JNK3 (Homo sapiens, UniProt P53779); test: HotSpot Kinase Assay (Reaction Biology Corp.), anti-JNK3 activity; settings: HotSpot radiometric assay, 33P-ATP
T2 construct: purchased Reaction Biology Corp
T2 sequence (P53779 whole entry): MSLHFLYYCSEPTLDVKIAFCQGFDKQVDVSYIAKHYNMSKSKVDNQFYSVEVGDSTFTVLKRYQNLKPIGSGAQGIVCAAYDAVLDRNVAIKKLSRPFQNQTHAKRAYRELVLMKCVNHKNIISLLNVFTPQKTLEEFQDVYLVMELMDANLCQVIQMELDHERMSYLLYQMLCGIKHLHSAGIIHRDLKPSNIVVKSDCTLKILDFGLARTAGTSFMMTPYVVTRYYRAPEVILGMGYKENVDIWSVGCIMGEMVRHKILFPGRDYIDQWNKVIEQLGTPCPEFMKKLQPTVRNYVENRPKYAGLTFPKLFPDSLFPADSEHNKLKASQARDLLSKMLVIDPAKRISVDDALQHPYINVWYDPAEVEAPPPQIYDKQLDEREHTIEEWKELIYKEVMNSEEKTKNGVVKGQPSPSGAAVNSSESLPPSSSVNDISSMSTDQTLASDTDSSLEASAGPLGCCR
Outline: as §3

DDR1 = DDR1 (Homo sapiens, UniProt Q08345); test: Enzymatic kinase assay, DDR1
Chain of DDR1 (Q08345 19-913): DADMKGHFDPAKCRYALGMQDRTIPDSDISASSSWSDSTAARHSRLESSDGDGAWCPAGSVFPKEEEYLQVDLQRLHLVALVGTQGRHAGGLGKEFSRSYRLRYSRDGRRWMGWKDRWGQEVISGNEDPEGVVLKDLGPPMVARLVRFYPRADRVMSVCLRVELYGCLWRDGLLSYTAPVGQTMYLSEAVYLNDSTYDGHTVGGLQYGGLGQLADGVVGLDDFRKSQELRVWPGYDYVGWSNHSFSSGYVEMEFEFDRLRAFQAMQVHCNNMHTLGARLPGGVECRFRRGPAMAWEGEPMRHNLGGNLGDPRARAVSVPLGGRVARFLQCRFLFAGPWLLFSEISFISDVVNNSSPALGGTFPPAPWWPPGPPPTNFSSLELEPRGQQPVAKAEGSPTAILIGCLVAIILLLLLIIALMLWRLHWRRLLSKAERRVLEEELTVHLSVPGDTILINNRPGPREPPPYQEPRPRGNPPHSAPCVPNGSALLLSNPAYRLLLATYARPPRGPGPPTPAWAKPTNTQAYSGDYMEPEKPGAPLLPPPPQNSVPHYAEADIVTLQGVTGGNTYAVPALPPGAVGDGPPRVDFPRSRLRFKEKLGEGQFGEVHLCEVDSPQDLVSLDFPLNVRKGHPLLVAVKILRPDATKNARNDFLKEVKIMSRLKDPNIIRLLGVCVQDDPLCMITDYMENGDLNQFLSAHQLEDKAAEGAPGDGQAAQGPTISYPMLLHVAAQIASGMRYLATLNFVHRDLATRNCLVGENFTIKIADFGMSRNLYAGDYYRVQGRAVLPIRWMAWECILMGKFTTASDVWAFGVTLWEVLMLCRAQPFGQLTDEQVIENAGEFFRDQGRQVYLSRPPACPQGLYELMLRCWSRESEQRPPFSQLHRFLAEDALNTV
Method: [Worded in the source for another target; this target is reported under the same test.] as §1, §2

p38a = molecular target: T3, p38a (Homo sapiens, UniProt Q16539); test: HotSpot Kinase Assay, P38a; settings: HotSpot radiometric assay, 33P-ATP
T3 construct: purchased Reaction Biology Corp
T3 sequence (Q16539 whole entry): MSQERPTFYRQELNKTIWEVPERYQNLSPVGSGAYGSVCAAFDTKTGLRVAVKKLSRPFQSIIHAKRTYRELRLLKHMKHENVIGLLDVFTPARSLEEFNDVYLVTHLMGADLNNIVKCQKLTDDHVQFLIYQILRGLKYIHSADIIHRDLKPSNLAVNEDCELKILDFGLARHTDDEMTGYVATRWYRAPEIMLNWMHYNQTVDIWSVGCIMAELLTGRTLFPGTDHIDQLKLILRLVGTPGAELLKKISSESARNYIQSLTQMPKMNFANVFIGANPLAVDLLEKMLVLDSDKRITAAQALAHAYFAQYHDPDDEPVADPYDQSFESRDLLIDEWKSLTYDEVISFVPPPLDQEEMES
Outline: as §3

TNIK = TNIK (Homo sapiens, UniProt Q9UKE5); test: Enzymatic kinase assay, TNIK
Method: [Worded in the source for another target; this target is reported under the same test.] as §1, §2

Abl-1 = Abl-1 (Homo sapiens, UniProt P00519); test: Enzymatic kinase assay, Abl-1
Method: [Worded in the source for another target; this target is reported under the same test.] as §1, §2

MINK1 = MINK1 (Homo sapiens, UniProt Q8N4C8); test: Enzymatic kinase assay, MINK1
Chain of MINK1 (Q8N4C8 whole entry): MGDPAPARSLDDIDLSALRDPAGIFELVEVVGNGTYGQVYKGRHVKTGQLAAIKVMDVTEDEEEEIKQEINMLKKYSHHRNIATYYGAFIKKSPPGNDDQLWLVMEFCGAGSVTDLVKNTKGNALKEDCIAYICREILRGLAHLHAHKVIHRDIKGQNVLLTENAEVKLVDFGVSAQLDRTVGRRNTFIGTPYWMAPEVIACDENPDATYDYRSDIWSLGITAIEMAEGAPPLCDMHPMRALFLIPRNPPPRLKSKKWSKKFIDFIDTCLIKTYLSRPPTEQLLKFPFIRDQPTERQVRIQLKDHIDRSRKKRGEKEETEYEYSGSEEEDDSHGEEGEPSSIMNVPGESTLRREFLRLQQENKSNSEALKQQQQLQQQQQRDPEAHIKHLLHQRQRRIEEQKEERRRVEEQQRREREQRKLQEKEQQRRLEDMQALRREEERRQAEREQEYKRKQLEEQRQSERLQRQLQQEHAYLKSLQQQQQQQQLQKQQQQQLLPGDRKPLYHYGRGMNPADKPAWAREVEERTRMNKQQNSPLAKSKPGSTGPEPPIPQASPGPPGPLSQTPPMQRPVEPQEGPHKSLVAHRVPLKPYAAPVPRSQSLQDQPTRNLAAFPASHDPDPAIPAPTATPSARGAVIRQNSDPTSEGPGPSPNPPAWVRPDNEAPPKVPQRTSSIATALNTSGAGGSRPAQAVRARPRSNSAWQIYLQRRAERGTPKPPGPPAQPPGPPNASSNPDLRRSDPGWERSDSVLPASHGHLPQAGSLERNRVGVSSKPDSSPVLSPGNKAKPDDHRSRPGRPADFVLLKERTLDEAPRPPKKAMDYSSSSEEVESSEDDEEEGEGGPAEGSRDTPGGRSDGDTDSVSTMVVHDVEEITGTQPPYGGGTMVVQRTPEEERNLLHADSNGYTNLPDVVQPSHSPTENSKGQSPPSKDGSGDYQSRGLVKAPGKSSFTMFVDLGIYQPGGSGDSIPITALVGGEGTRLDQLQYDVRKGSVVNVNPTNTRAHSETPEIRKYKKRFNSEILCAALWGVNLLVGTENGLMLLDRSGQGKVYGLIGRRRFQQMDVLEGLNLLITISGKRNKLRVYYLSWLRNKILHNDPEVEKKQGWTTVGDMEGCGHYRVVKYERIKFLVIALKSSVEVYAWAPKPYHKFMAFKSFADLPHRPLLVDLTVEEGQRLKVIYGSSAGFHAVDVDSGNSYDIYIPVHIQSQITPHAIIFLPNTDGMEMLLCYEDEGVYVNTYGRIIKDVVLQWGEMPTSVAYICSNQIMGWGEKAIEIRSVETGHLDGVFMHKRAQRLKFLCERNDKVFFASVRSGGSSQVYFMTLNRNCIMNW

Chain of HGK (O95819 whole entry): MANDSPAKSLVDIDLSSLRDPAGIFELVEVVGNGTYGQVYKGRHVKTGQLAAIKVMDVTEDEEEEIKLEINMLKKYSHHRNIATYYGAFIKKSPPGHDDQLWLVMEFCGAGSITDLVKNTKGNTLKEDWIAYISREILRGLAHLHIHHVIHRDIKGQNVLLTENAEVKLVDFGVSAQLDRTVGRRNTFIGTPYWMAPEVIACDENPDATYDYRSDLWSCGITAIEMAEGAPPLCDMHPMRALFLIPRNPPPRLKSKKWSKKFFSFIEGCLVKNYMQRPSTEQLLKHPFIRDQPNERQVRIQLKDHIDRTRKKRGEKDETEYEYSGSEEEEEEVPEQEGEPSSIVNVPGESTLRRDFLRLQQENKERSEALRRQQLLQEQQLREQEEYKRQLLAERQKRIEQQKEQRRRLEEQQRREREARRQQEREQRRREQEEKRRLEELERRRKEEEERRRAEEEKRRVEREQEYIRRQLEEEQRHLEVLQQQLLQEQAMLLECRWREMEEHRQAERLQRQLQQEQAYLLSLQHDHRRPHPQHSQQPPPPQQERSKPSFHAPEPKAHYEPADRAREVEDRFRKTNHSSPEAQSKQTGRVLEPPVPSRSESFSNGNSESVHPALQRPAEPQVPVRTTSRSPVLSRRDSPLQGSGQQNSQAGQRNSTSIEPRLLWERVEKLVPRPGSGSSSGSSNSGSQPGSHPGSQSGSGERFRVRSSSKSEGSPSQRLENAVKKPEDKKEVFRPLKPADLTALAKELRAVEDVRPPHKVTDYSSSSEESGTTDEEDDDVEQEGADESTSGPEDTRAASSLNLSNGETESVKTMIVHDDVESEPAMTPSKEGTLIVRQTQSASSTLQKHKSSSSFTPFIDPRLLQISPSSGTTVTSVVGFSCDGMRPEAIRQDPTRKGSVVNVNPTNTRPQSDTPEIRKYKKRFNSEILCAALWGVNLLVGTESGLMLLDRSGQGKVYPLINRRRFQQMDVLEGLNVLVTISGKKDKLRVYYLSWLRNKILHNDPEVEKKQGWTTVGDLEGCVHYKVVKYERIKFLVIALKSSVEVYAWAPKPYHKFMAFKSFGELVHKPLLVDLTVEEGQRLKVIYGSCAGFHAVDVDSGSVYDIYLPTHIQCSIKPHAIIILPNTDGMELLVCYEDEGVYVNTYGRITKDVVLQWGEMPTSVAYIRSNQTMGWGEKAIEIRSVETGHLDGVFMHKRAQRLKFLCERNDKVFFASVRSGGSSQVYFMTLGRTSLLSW

CNC(=O)c1cc(-n2ncc3cc(Nc4c(Cl)cccc4OC)ncc32)cs1 [Compound 108, 4-(5-((2-chloro-6-methoxyphenyl)amino)-1H-pyrazolo[3,4-c]pyridin-1-yl)-N-methylthiophene-2-carboxamide]
IC50 (HGK): < 200 nM | IC50 (JNK1): > 1000 nM | IC50 (JNK3): < 200 nM | IC50 (DDR1): 200 to 1000 nM | IC50 (p38a): 200 to 1000 nM | IC50 (TNIK): < 200 nM | IC50 (Abl-1): > 1000 nM | IC50 (MINK1): < 200 nM
